Test results reported in patent publication US8440836B2, “Heterocyclic alkanol derivatives” (Bayer Intellectual Property GmbH, priority 2010, dated 2013).

How the values were obtained:
[1] = system: Blumeria graminis f.sp. hordei; experiment: Blumeria graminis test (barley)/protective; assay type: in vivo; details: barley plants, protective spray, 500 ppm active ingredient, evaluation 7 days after inoculation
Leptosphaeria nodorum = Leptosphaeria nodorum test (wheat)/protective; assay type: in vivo; details: wheat plants, protective spray, 500 ppm active ingredient, evaluation 8 days after inoculation
Puccinia triticina = Puccinia triticina test (wheat)/protective; assay type: in vivo; details: wheat plants, protective spray, 500 ppm active ingredient, evaluation 8 days after inoculation
Text: Evaluation follows 8 days after the inoculation.

Septoria tritici = Septoria tritici test (wheat)/protective; assay type: in vivo; details: wheat plants, protective spray, 500 ppm active ingredient, evaluation 21 days after inoculation
Fusarium culmorum = experiment: Fusarium test (wheat)/seed treatment; assay type: in vivo; details: dose 50 g/dt, greenhouse 20° C. 14 days
Description: (§1) The test was conducted under greenhouse conditions. Wheat seeds treated with an inventive active compound or a combination of inventive active compounds were sown in 6×6 cm vessels, into a mixture of steamed field soil and sand (1:1). The test compound(s) were dissolved in N-methyl-2-pyrrolidone and diluted to the desired concentration with water. Wheat kernels were inoculated with spores of Fusarium culmorum. The infected and ground kernels were distributed between the treated wheat seeds. The seeds were covered with a top layer of clay granules and incubated in a greenhouse at 20° C. for 14 days. Evaluation was effected by counting the plants which emerged.

Leptosphaeria maculans = experiment: Leptosphaeria test (oilseed rape)/seed treatment; assay type: in vivo; details: rapeseed treatment, dose 50 g/dt, greenhouse 10° C. 14 days and 18° C. 7 days
Description: The test was conducted under greenhouse conditions. […] treated with an inventive active compound or a combination of inventive active compounds were sown in 6×6 cm vessels, into a mixture of steamed field soil and to sand (1:1). The test compound(s) were dissolved in N-methyl-2-pyrrolidone and diluted to the desired concentration with water. Perlite was inoculated with spores of Leptosphaeria maculans. The infected perlite was distributed between the treated […]. The seeds were covered with a top layer of steamed field soil and sand (1:1) and incubated in a greenhouse at 10° C. for 14 days and at 18° C. for 7 days.

Rhizoctonia solani = experiment: Rhizoctonia test (cotton)/seed treatment; assay type: in vivo; details: cottonseed treatment, dose 50 g/dt, greenhouse 20° C. 7 days
Description: The test was conducted under greenhouse conditions. Cottonseeds treated with an inventive active compound or a combination of inventive active compounds were sown in 6×6 cm vessels, into a mixture of steamed field soil and sand (1:1). The test compound(s) were dissolved in N-methyl-2-pyrrolidone and diluted to the desired concentration with water. Perlite was inoculated with spores of Rhizoctonia solani. The infected perlite was distributed between the treated cottonseeds. The seeds were covered with a top layer of clay granules and incubated in a greenhouse at 20° C. for 7 days.

Venturia inaequalis = experiment: Venturia test (apple)/protective; details: apple plants, protective spray, 100 ppm active ingredient, evaluation 10 days after inoculation
Description: • Solvent: 24.5 parts by weight of acetone • 24.5 parts by weight of dimethylacetamide • Emulsifier: 1 part by weight of alkylaryl polyglycol ether
To produce an appropriate active ingredient formulation, 1 part by weight of active ingredient is mixed with the specified amounts of solvent and emulsifier, and the concentrate is diluted with water to the desired concentration. To test for protective activity, young plants are sprayed with the active ingredient formulation at the stated application rate. After the spray coating has dried on, the plants are inoculated with an aqueous conidia suspension of the apple scab pathogen Venturia inaequalis and then remain in an incubation cabin at about 20° C. and 100% relative air humidity for 1 day. The plants are then placed in a greenhouse at about 21° C. and a relative air humidity of about 90%. Evaluation follows 10 days after the inoculation.

Sphaerotheca fuliginea = experiment: Sphaerotheca test (cucumber)/protective; details: cucumber plants, protective spray, 500 ppm active ingredient, evaluation 7 days after inoculation
Description: • Solvent: 49 parts by weight of N,N-dimethylformamide • Emulsifier: 1 part by weight of alkylaryl polyglycol ether
To produce an appropriate active ingredient formulation, 1 part by weight of active ingredient is mixed with the specified amounts of solvent and emulsifier, and the concentrate is diluted with water to the desired concentration. To test for protective activity, young cucumber plants are sprayed with the formulation of active ingredient at the stated application rate. 1 day after the treatment, the plants are inoculated with a spore suspension of Sphaerotheca fuliginea. The plants are then placed in a greenhouse at 70% relative air humidity and a temperature of 23° C. Evaluation follows 7 days after the inoculation.

[2] = logP by HPLC (EEC Directive 79/831 Annex V.A8); assay type: physicochemical; details: HPLC reversed-phase C18, method [a]: LC-MS, pH 2.7, 0.1% aqueous formic acid / acetonitrile, gradient 10% to 95% acetonitrile
Microdochium nivale = experiment: Microdochium test (wheat)/seed treatment; assay type: in vivo; details: dose 50 g/dt, greenhouse 10° C. 21 days
Description: as §1, with “Microdochium nivale.” for “Fusarium culmorum.”, “steamed field soil and sand (1:1)” for “clay granules”, “10°” for “20°”, “21” for “14”, “days.” for “days. Evaluation was effected by counting the plants which emerged.”

| SMILES | efficacy [1] | efficacy (Leptosphaeria nodorum) | efficacy (Puccinia triticina) | efficacy (Septoria tritici) | efficiency (emerged plants) (Fusarium culmorum) | efficiency (emerged plants) (Leptosphaeria maculans) | efficiency (emerged and diseased plants) (Rhizoctonia solani) | efficacy (Venturia inaequalis) | efficacy (Sphaerotheca fuliginea) | logP [2] | efficiency (emerged plants) (Microdochium nivale) |
| --- | --- | --- | --- | --- | --- | --- | --- | --- | --- | --- | --- |
| CC(C)(C)C(O)(COc1ccc(I)cc1)c1cncs1 (stereo not shown) [Compound 1] | 100% | 100% | 100% | 100% | 100% | 70% | 70% | 99% | 100% | – | – |
| CC(C)(C)C(O)(COc1ccc(Br)cc1)c1cncs1 (stereo not shown) [Compound 2] | 100% | 100% | 100% | 100% | – | – | – | 93% | 99% | – | – |
| CO/N=C/c1ccc(OCC(O)(c2cncs2)C(C)(C)C)cc1 (stereo not shown) [Compound 3] | 100% | 92% | 89% | 83% | – | – | – | 100% | – | – | – |
| CC1(C(O)(COc2ccc(Cl)cc2)c2cncs2)CC1 (stereo not shown) [Compound 14] | – | – | – | – | – | – | – | 98% | 95% | logP 3.11^[a]; [M + H]^+ = 310; 312 | – |
| CC1(C(O)(COc2ccc(Br)cc2)c2cncs2)CCCCC1 (stereo not shown) [Compound 33] | 89% | – | 83% | – | – | – | – | 99% | 100% | logP 4.37^[a]; [M + H]^+ = 396/398 | – |
| CC(C)(C)C(O)(COc1ccc(SC(F)(F)F)cc1)c1cncs1 (stereo not shown) [Compound 41] | 100% | 100% | 100% | 71% | – | – | – | 95% | 95% | logP 3.98^[a]; [M + H]^+ = 378 | – |
| CC(C)(/C=C/Cl)C(O)(COc1ccc(I)cc1)c1cncs1 (stereo not shown) [Compound 53] | 94% | 83% | 100% | 100% | – | – | – | – | 94% | logP 3.92^[a]; [M + H]^+ = 450 | – |
| OC(Cc1cncs1)(Cc1ccccc1Cl)C1(Cl)CC1 (stereo not shown) [Compound 57] | 100% | 88% | – | 70% | 89% | 80% | 80% | 100% | 100% | – | 78% |
| OC(Cc1cncs1)(Cc1ccccc1F)C1(Cl)CC1 (stereo not shown) [Compound 60] | 100% | 100% | 95% | 94% | 89% | 80% | 90% | 100% | 100% | logP 3.06^[a]; [M + H]^+ = 312 | 100% |
| CC(C)(C)C(O)(COc1ccc(C2CC2)cc1)c1cncs1 (stereo not shown) [Compound 79] | 100% | 86% | – | 88% | – | – | – | 100% | 93% | logP 3.73^[a]; [M + H]^+ = 318 | – |
